From patent EP4775582A1, “MACROCYCLIC COMPOUND AND ANTIBODY-DRUG CONJUGATE THEREOF” (Genfleet Therapeutics (Shanghai) Inc., priority 2023, dated 2025)

Legend:
Type in all cases: cell-based, human
AsPC-1 p-ERK = experiment: Cell p-ERK assay (HTRF), AsPC-1 cells; conditions: Homo sapiens, ASPC1, 3 h, read-out: AsPC-1 p-ERK IC50(nM)
Method: (§1) The cells were digested with trypsin (containing EDTA), collected in their corresponding complete media, and counted. The density of the cell suspensions was adjusted with their corresponding complete media, and 10000 AsPC-1 cells or 20000 NCI-H441 cells per well were seeded into a 96-well cell culture plate, with the volume of the medium in each well being 80 µL. The cell culture plate was incubated in an incubator at 37 °C with 5% CO2 overnight. […] On the day after cell seeding, 20 µL of the 5× compound stock solution was added to each cell culture well. […] In addition to the compound-treated wells described above, cell-containing DMSO control wells were also set. A complete medium containing 0.5% DMSO was added at 20 µL/well. After the mixture was well mixed, the culture plate was incubated in the incubator at 37 °C with 5% CO2 for another 3 h. The medium was then removed from the culture wells, and 50 µL of cell lysis buffer (from Advance ERK phospho-T202/Y204 kit) was added to each well. The mixture was well mixed and incubated for 30 min. Then, 16 µL of the mixture was transferred to a white-bottomed, opaque 96-well assay plate, and separately, 16 µL of cell lysis buffer was added to additional wells (serving as blank wells) in the assay plate. After the transfer was completed, 4 µL of p-ERK HTRF antibody mixture (from Advance ERK phospho-T202/Y204 kit) was added to each well of the assay plate, followed by a 4-hour incubation. […] Using an XLfit software, the IR (%) values were plotted against the logarithm of the compound concentrations, and the dose-response curves were fitted using the four-parameter method to calculate the IC50 values.

H441 p-ERK = experiment: Cell p-ERK assay (HTRF), NCI-H441 cells; conditions: NCI-H441 cells (KRAS G12V), 3 h incubation
Method: as §1

AsPC-1 cells = experiment: 3D cell proliferation assay (CellTiter Glo-3D), AsPC-1; conditions: Homo sapiens, ASPC1, 120 h, read-out: AsPC-1 AP IC50(nM)
Method: (§2) The cells were digested with trypsin (containing EDTA), collected in their respective low-serum complete media containing 2% FBS (for MIA Paca-2 cell culture: DMEM + 2% FBS + 0.5% Horse serum + 1% PS), and counted. After the cell density was adjusted as required, 200 MIA PaCa-2 cells, 800 AsPC-1 cells, 800 NCI-H441 cells, or 400 NCI-H1975 cells per well were seeded into a 384-well cell culture plate, with the volume of the medium in each well being 45 µL. The cell culture plate was incubated in an incubator at 37 °C with 5% CO2 overnight. […] On the day after cell seeding, 5 µL of the 10× compound stock solution was added to each cell culture well. […] In addition to the compound-treated wells described above, cell-containing DMSO control wells (with 5 µL of the complete medium containing 1% DMSO added to each well) and cell-free medium control wells (containing 50 µL of the complete medium with 2% FBS) were also set. The culture plate was incubated in an incubator at 37 °C with 5% CO2 for another 5 days, and then 30 µL of CellTiter-Glo working solution was added to each well. The mixture was well mixed, incubated for 30 min, left to stand at room temperature for 30 min, and then transferred to a white-bottomed, opaque 384-well assay plate at 40 µL/well. […] Using an XLfit software, the IR (%) values were plotted against the logarithm of the compound concentrations, and the dose-response curves were fitted using the four-parameter method to calculate the IC50 values.

NCI-H441 cells = experiment: 3D cell proliferation assay (CellTiter Glo-3D), NCI-H441; conditions: Homo sapiens, 120 h, NCI-H441 cells (KRAS G12V), 2% FBS, 5 days, read-out: H441 AP IC50
Method: as §2

| SMILES | IC50 (AsPC-1 p-ERK) [nM] | IC50 (H441 p-ERK; Homo sapiens) [nM] | IC50 (AsPC-1 cells) [nM] | IC50 (NCI-H441 cells) [nM] | IC50 (H441 p-ERK) [nM] |
| --- | --- | --- | --- | --- | --- |
| CO[C@@H](C)c1ncc(C#CCN2CCN(C(=O)CN)CC2)cc1-c1c2c3cc(ccc3n1C(C)C)-c1csc(n1)C[C@H](NC(=O)[C@H]1[C@@H]3COC[C@@H]31)C(=O)N1CCC[C@H](N1)C(=O)OCC(C)(C)C2 (atropisomer, axis not shown; (Ra)) [Compound Z84, (1R,5S,6r)-N-((6^3S,4S,Z)-(Ra)-1^2-(5-(3-(4-glycylpiperazin-1-yl)prop-1-yn-1-yl)-2-((S)-1-methoxyethyl)pyridin-3-yl)-1^1-isopropyl-10,10-dimethyl-5,7-dioxo-6^1,6^2,6^3,6^4,6^5,6^6-hexahydro-1^1H-8-oxa-2(4,2)-thiazola-1(5,3)-indola-6(1,3)-pyridazinacycloundecaphane-4-yl)-3-oxabicyclo[3.1.0]hexane-6-carboxamide] | 1.56 | 1.47 | 2.7 | 3.02 |  |
| CCn1c(-c2cc(C#CCN3CCCOCC3)cnc2[C@H](C)OC)c2c3cc(ccc31)-c1csc(n1)C[C@H](NC1=NOC3(CCOCC3)C1)C(=O)N1CCC[C@H](N1)C(=O)OCC(C)(C)C2 (atropisomer, axis not shown) [Compound Z175, (6^3S,4S,Z)-1^2-(5-(3-(1,4-oxazepan-4-yl)prop-1-yn-1-yl)-2-((S)-1-methoxyethyl)pyridin-3-yl)-4-((1,8-dioxa-2-azaspiro[4.5]dec-2-en-3-yl)amino)-1^1-ethyl-10,10-dimethyl-6^1,6^2,6^3,6^4,6^5,6^6-hexahydro-1^1H-8-oxa-2(4,2)-thiazola-1(5,3)-indola-6(1,3)-pyridazinacycloundecaphane-5,7-dione] | 6.03 | 2.61 |  |  |  |
| CCn1c(-c2cc(C#CCN3CCCOCC3)cnc2[C@H](C)OC)c2c3cc(ccc31)-c1csc(n1)C[C@H](NC1=NOC(C)(C)C1)C(=O)N1CCC[C@H](N1)C(=O)OCC(C)(C)C2 (atropisomer, axis not shown; (Ra)) [Compound Z172-1, (6^3S,4S,Z)-(Ra)-1^2-(5-(3-(1,4-oxazepan-4-yl)prop-1-yn-1-yl)-2-((5)-1-methoxyethyl)pyridin-3-yl)-1^1-ethyl-10,10-dimethyl-4-((5,5-dimethyl-4,5-dihydroisoxazol-3-yl)amino)-6^1,6^2,6^3,6^4,6^5,6^6-hexahydro-1^1H-8-oxa-2(4,2)-thiazola-1(5,3)-indola-6(1,3)-pyridazinacycloundecaphane-5,7-dione] | 5.8 | 2.17 |  |  |  |
| CCn1c(-c2cc(C#CCN3CCCOCC3)cnc2[C@H](C)OC)c2c3cc(ccc31)-c1csc(n1)C[C@H](NC1=NOC(C)(CC)C1)C(=O)N1CCC[C@H](N1)C(=O)OCC(C)(C)C2 (atropisomer, axis not shown) [Compound Z173, (6^3S,4S,Z)-1^2-(5-(3-(1,4-oxazepan-4-yl)prop-1-yn-1-yl)-2-((S)-1-methoxyethyl)pyridin-3-yl)-1^1-ethyl-10,10-dimethyl-4-((5-ethyl-5-methyl-4,5-dihydroisoxazol-3-yl)amino)-6^1,6^2,6^3,6^4,6^5,6^6-hexahydro-1^1H-8-oxa-2(4,2)-thiazola-1(5,3)-indola-6(1,3)-pyridazinacycloundecaphane-5,7-dione] |  | 3.03 |  |  |  |
| COCCn1c(-c2cc(C#CCN3CCN(C(=O)CO)CC3)cnc2[C@H](C)OC)c2c3cc(ccc31)-c1csc(n1)C[C@H](NC(=O)[C@H]1[C@@H]3COC[C@@H]31)C(=O)N1CCC[C@H](N1)C(=O)OCC(C)(C)C2 (atropisomer, axis not shown) [Compound Z31, (1R,5S,6r)-N-((6^3S,4S,Z)-1^2-(5-(3-(4-(2-hydroxyacetyl)piperazin-1-yl)prop-1-yn-1-yl)-2-((S)-1-methoxyethyl)pyridin-3-yl)-1^1-(methoxyethyl)-10,10-dimethyl-5,7-dioxo-6^1,6^2,6^3,6^4,6^5,6^6-hexahydro-1^1H-8-oxa-2(4,2)-thiazola-1(5,3)-indola-6(1,3)-pyridazinacycloundecaphane-4-yl)-3-oxabicyclo[3.1.0]hexane-6-carboxamide] |  | 2.39 |  |  |  |
| CCn1c(-c2cc(C#CCN3CCCOCC3)cnc2[C@H](C)OC)c2c3cc(ccc31)-c1csc(n1)C[C@H](NC1=NOC(C)(C3CC3)C1)C(=O)N1CCC[C@H](N1)C(=O)OCC(C)(C)C2 (atropisomer, axis not shown; (Ra)) [Compound Z281, (6^3S,4S,Z)-(Ra)-1^2-(5-(3-(1,4-oxazepan-4-yl)prop-1-yn-1-yl)-2-((S)-1-methoxyethyl)pyridin-3-yl)-1^1-ethyl-10,10-dimethyl-4-((5-cyclopropyl-5-methyl-4,5-dihydroisoxazol-3-yl)amino)-6^1,6^2,6^3,6^4,6^5,6^6-hexahydro-1^1H-8-oxa-2(4,2)-thiazola-1(5,3)-indola-6(1,3)-pyridazinacycloundecaphane-5,7-dione] |  | 3.04 | 4.87 | 3 |  |

Other lines, results leading:

| IC50 (AsPC-1 p-ERK) [nM] | IC50 (H441 p-ERK; Homo sapiens) [nM] | IC50 (AsPC-1 cells) [nM] | IC50 (NCI-H441 cells) [nM] | IC50 (H441 p-ERK) [nM] | SMILES |
| --- | --- | --- | --- | --- | --- |
| 0.45 | 0.41 |  |  |  | CCn1c(-c2cc(C#CCN3CCS(=O)(=O)CC3)cnc2[C@H](C)OC)c2c3cc(ccc31)-c1csc(n1)C[C@H](NC(=O)[C@@H](N)C1CCCC1)C(=O)N1CCC[C@H](N1)C(=O)OCC(C)(C)C2 (atropisomer, axis not shown; (Ra)) [Compound Z14, (2S)-2-amino-2-cyclopentyl-N-((6^3S,4S,Z)-(Ra)-1^2-(5-(3-(1,1-dioxidothiomorpholino)prop-1-yn-1-yl)-2-((S)-1-methoxyethyl)pyridin-3-yl)-1^1-ethyl-10,10-dimethyl-5,7-dioxo-6^1,6^2,6^3,6^4,6^5,6^6-hexahydro-1^1H-8-oxa-2(4,2)-thiazola-1(5,3)-indola-6(1,3)-pyridazinacycloundecaphane-4-yl)acetamide] |
| 0.24 | 0.13 | 0.41 | 0.44 |  | CCn1c(-c2cc(C#CCN3CCCN(C(=O)CO)CC3)cnc2[C@H](C)OC)c2c3cc(ccc31)-c1csc(n1)C[C@H](NC(=O)[C@H]1[C@@H]3COC[C@@H]31)C(=O)N1CCC[C@H](N1)C(=O)OCC(C)(C)C2 (atropisomer, axis not shown; (Ra)) [Compound Z19] |
| 0.52 | 0.53 |  |  |  | CCn1c(-c2cc(C#CCN3CCS(=O)(=O)CC3)cnc2[C@H](C)OC)c2c3cc(ccc31)-c1csc(n1)C[C@H](NC(=O)[C@@H](NC)C(C)C)C(=O)N1CCC[C@H](N1)C(=O)OCC(C)(C)C2 (atropisomer, axis not shown) [Compound Z4, (2S)-N-((6^3S,4S,Z)-1^2-(5-(3-(1,1-dioxidothiomorpholin-4-yl)prop-1-yn-1-yl)-2-((S)-1-methoxyethyl)pyridin-3-yl)-1^1-ethyl-10,10-dimethyl-5,7-dioxo-6^1,6^2,6^3,6^4,6^5, 6^6-hexahydro-1^1H-8-oxa-2(4,2)-thiazola-1(5,3)-indola-6(1,3)-pyridazinacycloundecaphane-4-yl)-3-methyl-2-(methylamino)butanamide] |
|  | 1.43 |  |  |  | CCn1c(-c2cc(C#CCN3CCCOCC3)cnc2[C@H](C)OC)c2c3cc(ccc31)-c1csc(n1)C[C@H](NC1=NOC(C)(C(C)C)C1)C(=O)N1CCC[C@H](N1)C(=O)OCC(C)(C)C2 (atropisomer, axis not shown; (Ra)) [Compound Z280, (6^3S,4S,Z)-(Ra)-1^2-(5-(3-(1,4-oxazepan-4-yl)prop-1-yn-1-yl)-2-((S)-1-methoxyethyl)pyridin-3-yl)-1^1-ethyl-10,10-dimethyl-4-((5-isopropyl-5-methyl-4,5-dihydroisoxazol-3-yl)amino)-6^1,6^2,6^3,6^4,6^5,6^6-hexahydro-1^1H-8-oxa-2(4,2)-thiazola-1(5,3)-indola-6(1,3)-pyridazinacycloundecaphane-5,7-dione] |
|  |  |  |  | 3.19 | CCn1c(-c2cc(C#CCN3CCS(=O)(=O)CC3)cnc2[C@H](C)OC)c2c3cc(ccc31)-c1cc(N)cc(c1)C[C@H](NC(=O)C(C(C)C)N(C)C(=O)[C@@H]1CN(C(=O)OC)C[C@@H]1C)C(=O)N1CCC[C@H](N1)C(=O)OCC(C)(C)C2 (atropisomer, axis not shown; (Ra)) [Compound Z62] |
